The values below come from US10227312B2, “Glucosylceramide synthase inhibitors for the treatment of diseases” (BIOMARIN PHARMACEUTICAL INC., priority 2015, dated 2019).

Experiment [1] deals with glucosylceramide synthase (GCS) (Canis lupus familiaris, UniProt A0A8I3MXG6). The experiment in a line: GCS Enzymatic Assay (MDCK lysates). The experiment is classed as biochemical, canine. To be noted: MDCK cell lysate, C6-NBD-Ceramide, 37° C. for 1 hour, LC/MS; read-out: Assay 1 (Enzyme Assay; MDCK lysates) IC50. The method, then: Madin-Darby canine kidney (MDCK) cell lysate was prepared using M-PER Mammalian Protein Extraction Reagent (Thermal Scientific) in the presence of a protease inhibitor cocktail (Roche). Protein concentration was determined using BCA assay kit (Pierce). […] 0.1% DMSO was used as mock treatment or control. The reaction was terminated by adding 100 μL acetonitrile solution and subjected to LC/MS analysis.
glucosylceramide synthase (GCS), sequence (A0A8I3MXG6 1-394): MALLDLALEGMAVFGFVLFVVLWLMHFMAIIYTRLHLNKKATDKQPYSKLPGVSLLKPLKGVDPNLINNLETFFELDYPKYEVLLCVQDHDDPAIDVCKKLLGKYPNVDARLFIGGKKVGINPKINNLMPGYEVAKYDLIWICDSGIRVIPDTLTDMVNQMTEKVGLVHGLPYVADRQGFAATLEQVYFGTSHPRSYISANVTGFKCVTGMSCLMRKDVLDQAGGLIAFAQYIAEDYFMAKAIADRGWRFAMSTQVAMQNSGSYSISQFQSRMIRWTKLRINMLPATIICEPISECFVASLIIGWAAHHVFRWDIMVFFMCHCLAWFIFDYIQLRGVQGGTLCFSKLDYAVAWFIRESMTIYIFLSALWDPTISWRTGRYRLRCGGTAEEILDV
The quantitative analysis of NBD-Ceramide and glucosylceramide was performed on a Shimadzu ultra-fast liquid chromatography (Shimadzu, Japan) coupled with API 4000 triple quadrupole mass spectrometer (Applied Biosystems, Concord, Ontario, Canada). Sample separation was conducted on a Waters Xbridge™ BEH130 C18, 100 mm×4.6 mm i.d, 3.5 μm (Milford, Mass., USA). The mobile phase consisted of water and acetonitrile supplemented with 0.1% formic acid (v/v). The flow rate was 1.0 mL/min. The initial mobile phase was 20% acetonitrile and was ramped in a linear fashion to 50% acetonitrile in 0.4 min. From 0.4 to 1.5 min, the gradient was ramped to 98% acetonitrile, and then was held at […] until 8.0 min. Acetonitrile was reset to 20% in 1.5 min, and maintained until 10.0 min. The total run time was 10.0 min. The MS/MS detection was performed in ESI positive mode. […] The cell lysate was diluted with equal volume of acetonitrile. Aliquots of 50 μL diluted samples were added to 1.5 mL tubes, and 100 μL of acetonitrile containing internal standard (100 ng/mL tolbutamide) were added for protein precipitation. The mixture were vortexed and then centrifuged at 13000 rpm for 10 min. 70 μL of supernatant were mixed with 140 μL of H2O and the final solution were injected for LC/MS/MS analysis and IC50's and/or percent inhibitions calculated.

For another experiment, the system named is K562 cells. The experiment in a line: K562 Cell-Based Assay. To be noted: Homo sapiens, NBD-Ceramide, LCMS, read-out: Assay 2 (Cellular Assay; K562 cells) IC50. How it is done: This assay was modified based on the study by Gupta et al. (J. Lipid Res. 2010, 51, 866). K562 cells were seeded into 12-well plates at 3×10^5 cells/well/mL in RPMI-1640 medium with 5% FBS and incubated at 37° C. for 24 h. One μL of a compound described herein at desired concentration (10 mM, 1 mM, 0.1 mM, 0.01 mM, 0.001 mM and 0.0001 mM in DMSO) or DMSO was added into the corresponding well and mixed. Cells were incubated at 37° C. for 4 h. Then 100 μL of RPMI-1640 medium containing 110 μM of NBD-Ceramide, 11% BSA, 5% FBS, and corresponding concentration of a compound described herein was added into each well and mixed. Cells were incubated for additional 0.5 h at 37° C., followed by washing the cells with ice-cold PBS (pH 7.4) twice with centrifugation and resuspended with 50 μL cold PBS+1% Triton X-100. The cell lysate was sonicated for 15 min before adding equal volume of methanol for LCMS analysis. A small aliquot of cell lysate was used to determine protein concentration by BCA assay kit. The HPLC equipment and methods used in Assay 1 were used in this assay as well and IC50's were calculated.

Where only a bound is given, the exact number is not on record here.

Regarding `O=C(N[C@H](CN1CCC1)[C@H](O)c1ccc(OC2CC2)c(F)c1)C1=NOCc2cc(-c3ccc(F)cc3)ccc21` [Example 7, N-((1R,2R)-3-(azetidin-1-yl)-1-(4-cyclopropoxy-3-fluorophenyl)-1-hydroxypropan-2-yl)-7-(4-fluorophenyl)-1H-benzo[d][1,2]oxazine-4-carboxamide], the IC50 in experiment [1] is less than 0.01 µM; in the experiment with K562 cells it was no more than 0.01 µM.

For the compound `O=C(N[C@H](CN1CCCC1)[C@H](O)c1ccc(OC2CC2)c(Cl)c1)C1OCCc2cc(-c3ccc(F)cc3)ccc21` (stereo partly drawn) [Example 42, N-((1R,2R)-1-(3-chloro-4-cyclopropoxyphenyl)-1-hydroxy-3-(pyrrolidin-1-yl)propan-2-yl)-6-(4-fluorophenyl)isochroman-1-carboxamide], the IC50 in experiment [1] is 0.1 to 1 µM.

Consider `O=C(N[C@H](CN1CCC1)[C@H](O)c1ccc(OC2CC2)c(F)c1)C1=NOCc2c1sc1cc(Cl)ccc21` [Example 15, N-((1R,2R)-3-(azetidin-1-yl)-1-(4-cyclopropoxy-3-fluorophenyl)-1-hydroxypropan-2-yl)-7-chloro-1H-benzo[4,5]thieno[2,3-d][1,2]oxazine-4-carboxamide], for which the IC50 in experiment [1] fell in the range of 0.1 to 1 µM.

For `O=C(N[C@H](CN1CCCC1)[C@H](O)c1ccc(OC2CC2)c(Cl)c1)C1=NOCc2c1ccc1sc(Cl)cc21` [Example 32, 8-chloro-N-((1R,2R)-1-(3-chloro-4-cyclopropoxyphenyl)-1-hydroxy-3-(pyrrolidin-1-yl)propan-2-yl)-1H-thieno[3′,2′:3,4]benzo[1,2-d][1,2]oxazine-4-carboxamide], the IC50 in experiment [1] is less than 0.01 µM; in the experiment on K562 cells it was no more than 0.01 µM.

Regarding `O=C(N[C@H](CN1CCC1)[C@H](O)c1ccc(OC2CC2)cc1)C1=NOCc2c1ccc1cc(F)ccc21` [Example 31, N-((1R,2R)-3-(azetidin-1-yl)-1-(4-cyclopropoxyphenyl)-1-hydroxypropan-2-yl)-8-fluoro-1H-naphtho[2,1-d][1,2]oxazine-4-carboxamide], the IC50 (in experiment [1]; in the experiment on K562 cells) was 0.01 to 0.1 µM in each case.

`O=C(N[C@H](CN1CCCC1)[C@H](O)c1ccc(OC2CC2)c(Cl)c1)C1=NOCc2cc(OCC3CCCCC3)ccc21` [Example 45, N-((1R,2R)-1-(3-chloro-4-cyclopropoxyphenyl)-1-hydroxy-3-(pyrrolidin-1-yl)propan-2-yl)-7-(cyclohexylmethoxy)-1H-benzo[d][1,2]oxazine-4-carboxamide]: the figures for the IC50 (in experiment [1]; in the experiment on K562 cells) were less than 0.01 µM and 0.01 to 0.1 µM, respectively.

On to `O=C(N[C@H](CN1CCCC1)[C@H](O)c1ccc(OC2CC2)cc1)C1=NOCc2c1ccc1sc(Cl)cc21` [Example 44, 8-chloro-N-((1R,2R)-1-(4-cyclopropoxyphenyl)-1-hydroxy-3-(pyrrolidin-1-yl)propan-2-yl)-1H-thieno[3′,2′:3,4]benzo[1,2-d][1,2]oxazine-4-carboxamide], for which the IC50 in experiment [1] is 0.01 to 0.1 µM; with K562 cells it was no more than 0.01 µM.

In the case of `CC1ON=C(C(=O)N[C@H](CN2CCCC2)[C@H](O)c2ccc(OC3CC3)c(Cl)c2)c2ccc(-c3ccc(F)cc3)cc21` (stereo partly drawn) [Example 24, N-((1R,2R)-1-(3-chloro-4-cyclopropoxyphenyl)-1-hydroxy-3-(pyrrolidin-1-yl)propan-2-yl)-7-(4-fluorophenyl)-1-methyl-1H-benzo[d][1,2]oxazine-4-carboxamide], the IC50 (in experiment [1]; with K562 cells) was 0.01 to 0.1 µM each time.

As for `O=C(N[C@H](CN1CCCC1)[C@H](O)c1ccc(OC2CC2)c(Cl)c1)C1=NOCc2cc(-c3ccc(F)cc3)ccc21` [Example 1, N-((1R,2R)-1-(3-chloro-4-cyclopropoxyphenyl)-1-hydroxy-3-(pyrrolidin-1-yl)propan-2-yl)-7-(4-fluorophenyl)-1H-benzo[d][1,2]oxazine-4-carboxamide], the IC50 in experiment [1] was less than 0.01 µM; in the experiment with K562 cells, no more than 0.01 µM.

Take `O=C(N[C@H](CN1CCCC1)[C@H](O)c1ccc(OC2CC2)cc1)C1=NOCc2cc(-c3ccc(Cl)s3)ccc21` [Example 14, 7-(5-chlorothiophen-2-yl)-N-((1R,2R)-1-(4-cyclopropoxyphenyl)-1-hydroxy-3-(pyrrolidin-1-yl)propan-2-yl)-1H-benzo[d][1,2]oxazine-4-carboxamide]: the IC50 in experiment [1] was less than 0.01 µM; with K562 cells, no more than 0.01 µM.

With `O=C(N[C@H](CN1CCCC1)[C@H](O)c1ccc(OC2CC2)c(Cl)c1)C1=NOCc2cc(-c3ccc(Cl)s3)ccc21` [Example 10, N-((1R,2R)-1-(3-chloro-4-cyclopropoxyphenyl)-1-hydroxy-3-(pyrrolidin-1-yl)propan-2-yl)-7-(5-chlorothiophen-2-yl)-1H-benzo[d][1,2]oxazine-4-carboxamide], the IC50 in experiment [1] is 0.01 to 0.1 µM; in the experiment on K562 cells, no more than 0.01 µM.

Consider `O=C(N[C@H](CN1CCCC1)[C@H](O)c1ccc(OC2CC2)c(Cl)c1)C1=NOCc2cc3ccccc3cc21` [Example 20, N-((1R,2R)-1-(3-chloro-4-cyclopropoxyphenyl)-1-hydroxy-3-(pyrrolidin-1-yl)propan-2-yl)-1H-naphtho[2,3-d][1,2]oxazine-4-carboxamide], for which the IC50 was less than 0.01 µM in experiment [1] and no more than 0.01 µM in the experiment with K562 cells.

`CN(C(=O)C1=NCCc2cc(-c3ccc(F)cc3)ccc21)[C@H](CN1CCCC1)[C@H](O)c1ccc(OC2CC2)c(Cl)c1` [Example 39, N-((1R,2R)-1-(3-chloro-4-cyclopropoxyphenyl)-1-hydroxy-3-(pyrrolidin-1-yl)propan-2-yl)-6-(4-fluorophenyl)-N-methyl-3,4-dihydroisoquinoline-1-carboxamide]: the results for the IC50 (in experiment [1]; in the experiment on K562 cells) were 0.01 to 0.1 µM and no more than 0.01 µM, respectively.

Take `CC1(C)ON=C(C(=O)N[C@H](CN2CCCC2)[C@H](O)c2ccc(OC3CC3)c(Cl)c2)c2ccc(-c3ccc(F)cc3)cc21` [Example 23, N-((1R,2R)-1-(3-chloro-4-cyclopropoxyphenyl)-1-hydroxy-3-(pyrrolidin-1-yl)propan-2-yl)-7-(4-fluorophenyl)-1,1-dimethyl-1H-benzo[d][1,2]oxazine-4-carboxamide]: the IC50 in experiment [1] fell in the range of 0.1 to 1 µM.

Turning to `O=C(N[C@H](CN1CCCC1)[C@H](O)c1ccc(OC2CC2)c(Cl)c1)C1OCCc2c1sc1cc(Cl)ccc21` (stereo partly drawn) [Example 43, 7-chloro-N-((1R,2R)-1-(3-chloro-4-cyclopropoxyphenyl)-1-hydroxy-3-(pyrrolidin-1-yl)propan-2-yl)-3,4-dihydro-1H-benzo[4,5]thieno[2,3-c]pyran-1-carboxamide], in experiment [1], the IC50 fell in the range of 0.1 to 1 µM.

Consider `O=C(N[C@H](CN1CCC1)[C@H](O)c1ccc(OC2CC2)c(Cl)c1)C1=NOCc2c1sc1cc(Cl)ccc21` [Example 16, N-((1R,2R)-3-(azetidin-1-yl)-1-(3-chloro-4-cyclopropoxyphenyl)-1-hydroxypropan-2-yl)-7-chloro-1H-benzo[4,5]thieno[2,3-d][1,2]oxazine-4-carboxamide], for which the IC50 in experiment [1] was in the range of 0.1 to 1 µM.

As to `CC1(C)Cc2cc(-c3ccc(F)cc3)ccc2C(C(=O)N[C@H](CN2CCCC2)[C@H](O)c2ccc(OC3CC3)c(Cl)c2)=N1` [Example 41, N-((1R,2R)-1-(3-chloro-4-cyclopropoxyphenyl)-1-hydroxy-3-(pyrrolidin-1-yl)propan-2-yl)-6-(4-fluorophenyl)-3,3-dimethyl-3,4-dihydroisoquinoline-1-carboxamide], the IC50 in experiment [1] was 0.1 to 1 µM.

With `O=C(N[C@H](CN1CCC1)[C@H](O)c1ccc(OC2CC2)cc1)C1=NCCc2cc(-c3ccc(F)cc3)ccc21` [Example 40, N-((1R,2R)-3-(azetidin-1-yl)-1-(4-cyclopropoxyphenyl)-1-hydroxypropan-2-yl)-6-(4-fluorophenyl)-3,4-dihydroisoquinoline-1-carboxamide], the IC50 in experiment [1] fell in the range of 0.01 to 0.1 µM.

`O=C(N[C@H](CN1CCCC1)[C@H](O)c1ccc(OC2CC2)c(Cl)c1)C1=NOCc2c1sc1cc(Cl)ccc21` [Example 13, 7-chloro-N-((1R,2R)-1-(3-chloro-4-cyclopropoxyphenyl)-1-hydroxy-3-(pyrrolidin-1-yl)propan-2-yl)-1H-benzo[4,5]thieno[2,3-d][1,2]oxazine-4-carboxamide]: the IC50 in experiment [1] is 0.01 to 0.1 µM.
